Literature values in US6713046B1, “Magnetic resonance imaging agents for the delivery of therapeutic agents” (Research Corporation Technologies, priority 1997, dated 2004).

Conditions: thermodynamic stability of the Gd(III) chelate complex; background statement

## O=C([O-])CN1CCN(CC(=O)[O-])CCN(CC(=O)O)CCN(CC(=O)[O-])CC1.[Gd+3] [Gd-DOTA]
  stability constant (K), formation constant, logK: 28.5
